This is an account of results in patent publication US20240246942A1, “KINASE INHIBITORS FOR THE TREATMENT OF NEURODEGENERATIVE DISEASES” (priority 2020, published 2024).

Holding throughout (test): biochemical
The target in experiment [1] is T1, panel of 374 wild-type kinases (Homo sapiens, UniProt P29322).
T1 construct: purchased Reaction Biology Corporation
T1 sequence (P29322 28-1005): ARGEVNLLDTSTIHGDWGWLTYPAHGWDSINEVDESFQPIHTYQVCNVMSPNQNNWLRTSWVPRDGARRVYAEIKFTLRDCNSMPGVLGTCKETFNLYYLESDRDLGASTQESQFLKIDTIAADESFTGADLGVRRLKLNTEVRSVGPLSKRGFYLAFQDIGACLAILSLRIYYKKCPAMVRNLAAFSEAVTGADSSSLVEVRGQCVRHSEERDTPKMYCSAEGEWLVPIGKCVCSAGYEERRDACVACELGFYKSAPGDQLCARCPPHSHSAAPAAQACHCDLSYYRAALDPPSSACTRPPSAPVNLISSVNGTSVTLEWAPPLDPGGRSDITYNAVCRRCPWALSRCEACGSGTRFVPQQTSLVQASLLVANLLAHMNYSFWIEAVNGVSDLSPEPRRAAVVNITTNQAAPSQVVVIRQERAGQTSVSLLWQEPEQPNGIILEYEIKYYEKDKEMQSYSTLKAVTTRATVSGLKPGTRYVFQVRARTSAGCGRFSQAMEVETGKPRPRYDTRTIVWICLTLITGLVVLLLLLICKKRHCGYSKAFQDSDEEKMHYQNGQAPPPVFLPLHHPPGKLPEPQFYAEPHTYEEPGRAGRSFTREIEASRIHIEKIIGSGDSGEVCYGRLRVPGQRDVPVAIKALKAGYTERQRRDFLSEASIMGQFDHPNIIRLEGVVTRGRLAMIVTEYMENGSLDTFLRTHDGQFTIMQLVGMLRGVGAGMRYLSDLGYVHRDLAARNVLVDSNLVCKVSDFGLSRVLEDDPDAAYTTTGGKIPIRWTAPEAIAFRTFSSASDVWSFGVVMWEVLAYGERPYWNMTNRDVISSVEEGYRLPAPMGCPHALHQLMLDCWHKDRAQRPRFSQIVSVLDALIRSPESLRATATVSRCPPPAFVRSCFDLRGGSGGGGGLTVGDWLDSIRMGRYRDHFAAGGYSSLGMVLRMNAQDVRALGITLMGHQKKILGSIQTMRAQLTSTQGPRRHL
Conditions: read-out: % Enzyme Activity (relative to DMSO controls), EPHA8.

Experiment [2] addresses T2, panel of 374 wild-type kinases (Homo sapiens, UniProt P24723).
T2 construct: purchased Reaction Biology Corporation
The note with it: read-out: % Enzyme Activity (relative to DMSO controls), kinase PKCeta.

Experiment [3] addresses T3, panel of 374 wild-type kinases (Homo sapiens, UniProt Q05397).
T3 construct: purchased Reaction Biology Corporation
Conditions: read-out: % Enzyme Activity (relative to DMSO controls), FAK/PTK2.

Experiment [4] deals with T4, panel of 374 wild-type kinases (Homo sapiens, UniProt O00311).
T4 construct: purchased Reaction Biology Corporation
The note with it: read-out: % Enzyme Activity (relative to DMSO controls), CDC7/DBF4.

The target in experiment [5] is T5, panel of 374 wild-type kinases (Homo sapiens, UniProt P09769).
T5 construct: purchased Reaction Biology Corporation
The note with it: read-out: % Enzyme Activity (relative to DMSO controls), FGR.

The target in experiment [6] is T6, panel of 374 wild-type kinases (Homo sapiens, UniProt P78368).
T6 construct: purchased Reaction Biology Corporation
The note with it: read-out: % Enzyme Activity (relative to DMSO controls), CK1g2.

Experiment [7] has as its target T7, panel of 374 wild-type kinases (Homo sapiens, UniProt P48729).
T7 construct: purchased Reaction Biology Corporation
Conditions: read-out: % Enzyme Activity (relative to DMSO controls), CK1a1.

Experiment [8] concerns the target T8, panel of 374 wild-type kinases (Homo sapiens, UniProt Q07002).
T8 construct: purchased Reaction Biology Corporation
Conditions: read-out: % Enzyme Activity (relative to DMSO controls), CDK18/cyclin Y (PCTK3).

Experiment [9] concerns the target T9, panel of 374 wild-type kinases (Homo sapiens, UniProt P23458).
T9 construct: purchased Reaction Biology Corporation
The note with it: read-out: % Enzyme Activity (relative to DMSO controls), JAK1.

Experiment [10] addresses T10, panel of 374 wild-type kinases (Homo sapiens, UniProt Q9Y6M4).
T10 construct: purchased Reaction Biology Corporation
Conditions: read-out: % Enzyme Activity (relative to DMSO controls), CK1g3.

For experiment [11], the target named is T11, panel of 374 wild-type kinases (Homo sapiens, UniProt O60285).
T11 construct: purchased Reaction Biology Corporation
T11 sequence (O60285 1-661): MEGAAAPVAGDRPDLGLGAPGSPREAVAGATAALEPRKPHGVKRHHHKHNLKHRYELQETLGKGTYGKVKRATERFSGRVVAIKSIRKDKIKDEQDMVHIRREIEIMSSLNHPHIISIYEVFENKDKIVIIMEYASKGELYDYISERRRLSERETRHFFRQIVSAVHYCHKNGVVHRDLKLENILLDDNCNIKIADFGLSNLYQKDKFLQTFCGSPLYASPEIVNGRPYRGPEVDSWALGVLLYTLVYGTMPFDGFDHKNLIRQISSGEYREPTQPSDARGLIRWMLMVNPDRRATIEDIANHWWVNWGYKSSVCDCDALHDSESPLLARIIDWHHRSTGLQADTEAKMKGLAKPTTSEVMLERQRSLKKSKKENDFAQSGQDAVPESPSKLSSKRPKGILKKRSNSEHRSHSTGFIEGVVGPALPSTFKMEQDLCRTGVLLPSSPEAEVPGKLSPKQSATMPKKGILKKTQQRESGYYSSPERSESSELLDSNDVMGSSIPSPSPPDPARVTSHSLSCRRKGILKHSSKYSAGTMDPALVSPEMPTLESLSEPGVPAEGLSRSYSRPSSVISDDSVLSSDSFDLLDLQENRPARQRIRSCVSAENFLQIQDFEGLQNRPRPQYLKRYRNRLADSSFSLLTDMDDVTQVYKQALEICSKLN
The note with it: read-out: % Enzyme Activity (relative to DMSO controls), ARK5/NUAK1.

The target of experiment [12] is T12, panel of 374 wild-type kinases (Homo sapiens, UniProt Q9HBY8).
T12 construct: purchased Reaction Biology Corporation
Conditions: read-out: % Enzyme Activity (relative to DMSO controls), kinase SGK2.

Experiment [13] concerns the target T13, panel of 374 wild-type kinases (Homo sapiens, UniProt P22607).
T13 construct: purchased Reaction Biology Corporation
The note with it: read-out: % Enzyme Activity (relative to DMSO controls), FGFR3.

T13 sequence (P22607 23-806): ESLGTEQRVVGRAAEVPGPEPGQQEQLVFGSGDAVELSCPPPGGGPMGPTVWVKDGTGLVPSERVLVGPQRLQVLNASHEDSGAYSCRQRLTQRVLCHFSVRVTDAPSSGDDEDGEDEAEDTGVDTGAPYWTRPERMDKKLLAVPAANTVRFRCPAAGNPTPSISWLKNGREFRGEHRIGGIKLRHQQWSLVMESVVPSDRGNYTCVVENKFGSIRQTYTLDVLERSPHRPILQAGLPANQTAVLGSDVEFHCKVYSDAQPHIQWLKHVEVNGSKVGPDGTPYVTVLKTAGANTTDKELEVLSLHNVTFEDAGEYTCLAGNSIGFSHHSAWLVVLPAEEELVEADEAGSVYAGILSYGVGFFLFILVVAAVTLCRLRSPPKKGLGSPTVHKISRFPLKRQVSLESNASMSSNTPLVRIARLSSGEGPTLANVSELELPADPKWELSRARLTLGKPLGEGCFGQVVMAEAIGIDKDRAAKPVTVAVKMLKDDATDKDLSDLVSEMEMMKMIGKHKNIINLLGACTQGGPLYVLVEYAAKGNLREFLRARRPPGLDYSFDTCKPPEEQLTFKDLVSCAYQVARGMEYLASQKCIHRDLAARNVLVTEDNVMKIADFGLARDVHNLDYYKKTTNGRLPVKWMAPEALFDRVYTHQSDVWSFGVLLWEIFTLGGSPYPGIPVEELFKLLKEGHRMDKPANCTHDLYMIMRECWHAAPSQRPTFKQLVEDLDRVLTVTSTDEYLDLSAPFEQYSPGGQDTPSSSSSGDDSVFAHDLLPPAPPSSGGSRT
T2 sequence (P24723 whole entry): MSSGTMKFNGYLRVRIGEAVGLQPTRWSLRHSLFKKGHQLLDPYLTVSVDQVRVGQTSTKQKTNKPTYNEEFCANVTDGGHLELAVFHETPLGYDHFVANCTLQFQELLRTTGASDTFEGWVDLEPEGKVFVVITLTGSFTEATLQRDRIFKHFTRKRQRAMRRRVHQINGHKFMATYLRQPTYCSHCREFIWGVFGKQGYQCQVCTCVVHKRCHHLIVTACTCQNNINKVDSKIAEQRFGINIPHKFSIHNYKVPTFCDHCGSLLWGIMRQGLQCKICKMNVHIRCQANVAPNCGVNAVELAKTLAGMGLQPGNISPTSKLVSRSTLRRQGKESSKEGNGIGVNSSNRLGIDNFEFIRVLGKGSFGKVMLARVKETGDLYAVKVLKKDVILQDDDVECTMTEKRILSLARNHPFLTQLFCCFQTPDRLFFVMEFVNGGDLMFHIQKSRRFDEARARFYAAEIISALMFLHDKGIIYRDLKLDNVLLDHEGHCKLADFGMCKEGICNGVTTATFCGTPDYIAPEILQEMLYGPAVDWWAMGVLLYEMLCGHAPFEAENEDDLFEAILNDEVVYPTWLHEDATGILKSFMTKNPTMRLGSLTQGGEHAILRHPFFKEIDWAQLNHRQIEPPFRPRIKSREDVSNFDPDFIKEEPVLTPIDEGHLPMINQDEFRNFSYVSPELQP
T10 sequence (Q9Y6M4 whole entry): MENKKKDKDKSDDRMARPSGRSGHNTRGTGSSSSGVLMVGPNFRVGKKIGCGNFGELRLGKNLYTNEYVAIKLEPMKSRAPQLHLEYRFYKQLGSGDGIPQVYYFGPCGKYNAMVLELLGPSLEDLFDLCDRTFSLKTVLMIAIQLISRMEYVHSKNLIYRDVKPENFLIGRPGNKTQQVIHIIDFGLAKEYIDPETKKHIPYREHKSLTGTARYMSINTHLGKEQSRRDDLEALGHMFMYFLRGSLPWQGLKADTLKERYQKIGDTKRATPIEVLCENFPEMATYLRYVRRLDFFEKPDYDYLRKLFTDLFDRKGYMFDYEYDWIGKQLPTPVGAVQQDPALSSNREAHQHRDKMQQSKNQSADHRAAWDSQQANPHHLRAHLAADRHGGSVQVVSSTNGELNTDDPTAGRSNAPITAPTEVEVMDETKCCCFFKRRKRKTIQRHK
T5 sequence (P09769 whole entry): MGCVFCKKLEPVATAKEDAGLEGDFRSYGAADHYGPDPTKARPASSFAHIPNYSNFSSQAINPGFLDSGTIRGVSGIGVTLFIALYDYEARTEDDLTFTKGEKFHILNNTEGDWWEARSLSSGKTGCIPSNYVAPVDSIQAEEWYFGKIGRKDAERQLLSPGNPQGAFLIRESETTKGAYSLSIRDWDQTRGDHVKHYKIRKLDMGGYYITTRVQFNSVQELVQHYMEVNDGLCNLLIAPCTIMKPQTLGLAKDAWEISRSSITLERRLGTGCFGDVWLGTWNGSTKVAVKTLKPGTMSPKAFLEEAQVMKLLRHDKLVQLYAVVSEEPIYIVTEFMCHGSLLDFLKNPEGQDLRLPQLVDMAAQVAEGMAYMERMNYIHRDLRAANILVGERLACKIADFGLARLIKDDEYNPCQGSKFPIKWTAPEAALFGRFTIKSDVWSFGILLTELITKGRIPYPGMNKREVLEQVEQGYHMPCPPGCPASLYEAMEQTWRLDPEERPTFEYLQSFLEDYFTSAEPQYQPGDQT
T3 sequence (Q05397 whole entry): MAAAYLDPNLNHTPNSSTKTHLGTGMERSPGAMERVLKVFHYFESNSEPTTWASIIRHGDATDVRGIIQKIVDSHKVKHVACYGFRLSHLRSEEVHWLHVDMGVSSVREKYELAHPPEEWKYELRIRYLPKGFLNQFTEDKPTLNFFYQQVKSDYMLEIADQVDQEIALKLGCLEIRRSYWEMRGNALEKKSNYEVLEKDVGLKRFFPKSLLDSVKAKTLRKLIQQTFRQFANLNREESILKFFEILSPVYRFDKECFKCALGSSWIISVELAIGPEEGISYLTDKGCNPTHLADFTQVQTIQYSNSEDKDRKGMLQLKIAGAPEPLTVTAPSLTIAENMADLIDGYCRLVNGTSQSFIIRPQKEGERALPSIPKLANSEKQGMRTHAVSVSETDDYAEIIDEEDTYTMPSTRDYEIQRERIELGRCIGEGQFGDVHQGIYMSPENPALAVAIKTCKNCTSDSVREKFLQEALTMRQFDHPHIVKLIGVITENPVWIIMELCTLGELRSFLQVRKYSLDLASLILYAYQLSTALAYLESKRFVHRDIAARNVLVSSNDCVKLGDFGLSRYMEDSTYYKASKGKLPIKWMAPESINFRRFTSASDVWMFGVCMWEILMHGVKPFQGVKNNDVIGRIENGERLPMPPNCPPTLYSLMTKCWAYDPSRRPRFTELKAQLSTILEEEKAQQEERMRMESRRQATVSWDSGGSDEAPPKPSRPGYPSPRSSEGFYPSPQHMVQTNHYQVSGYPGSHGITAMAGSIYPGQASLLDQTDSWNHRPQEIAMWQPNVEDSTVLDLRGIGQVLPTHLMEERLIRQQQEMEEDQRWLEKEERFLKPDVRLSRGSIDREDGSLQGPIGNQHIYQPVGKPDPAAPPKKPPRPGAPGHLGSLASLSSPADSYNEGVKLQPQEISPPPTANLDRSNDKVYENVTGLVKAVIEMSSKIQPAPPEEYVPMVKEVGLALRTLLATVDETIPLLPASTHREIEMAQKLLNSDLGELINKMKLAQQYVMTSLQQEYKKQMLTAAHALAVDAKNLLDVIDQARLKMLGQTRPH
T4 sequence (O00311 whole entry): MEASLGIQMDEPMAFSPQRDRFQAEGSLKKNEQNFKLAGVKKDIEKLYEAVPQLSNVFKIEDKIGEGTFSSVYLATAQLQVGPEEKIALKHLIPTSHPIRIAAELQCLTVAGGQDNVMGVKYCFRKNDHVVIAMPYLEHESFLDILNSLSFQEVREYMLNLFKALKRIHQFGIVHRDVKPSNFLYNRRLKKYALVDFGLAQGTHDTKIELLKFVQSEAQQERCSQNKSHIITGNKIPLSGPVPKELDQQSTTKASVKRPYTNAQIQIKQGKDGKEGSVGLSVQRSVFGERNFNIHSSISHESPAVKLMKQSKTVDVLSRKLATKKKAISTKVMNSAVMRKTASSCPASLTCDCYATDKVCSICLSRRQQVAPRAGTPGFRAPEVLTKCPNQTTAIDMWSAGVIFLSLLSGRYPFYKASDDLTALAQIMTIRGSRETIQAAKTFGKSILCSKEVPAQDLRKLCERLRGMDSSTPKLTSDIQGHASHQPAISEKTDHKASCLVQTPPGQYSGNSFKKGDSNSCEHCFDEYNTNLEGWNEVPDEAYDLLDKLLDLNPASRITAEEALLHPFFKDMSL
T7 sequence (P48729 whole entry): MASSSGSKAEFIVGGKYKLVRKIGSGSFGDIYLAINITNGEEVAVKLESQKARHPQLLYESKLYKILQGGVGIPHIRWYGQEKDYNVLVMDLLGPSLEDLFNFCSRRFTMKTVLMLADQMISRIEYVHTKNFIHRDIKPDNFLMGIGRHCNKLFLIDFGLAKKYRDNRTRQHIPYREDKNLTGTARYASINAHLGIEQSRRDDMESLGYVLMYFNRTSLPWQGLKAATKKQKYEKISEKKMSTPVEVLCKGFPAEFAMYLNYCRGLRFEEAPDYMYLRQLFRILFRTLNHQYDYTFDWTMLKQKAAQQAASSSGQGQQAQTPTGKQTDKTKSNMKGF
T8 sequence (Q07002 whole entry): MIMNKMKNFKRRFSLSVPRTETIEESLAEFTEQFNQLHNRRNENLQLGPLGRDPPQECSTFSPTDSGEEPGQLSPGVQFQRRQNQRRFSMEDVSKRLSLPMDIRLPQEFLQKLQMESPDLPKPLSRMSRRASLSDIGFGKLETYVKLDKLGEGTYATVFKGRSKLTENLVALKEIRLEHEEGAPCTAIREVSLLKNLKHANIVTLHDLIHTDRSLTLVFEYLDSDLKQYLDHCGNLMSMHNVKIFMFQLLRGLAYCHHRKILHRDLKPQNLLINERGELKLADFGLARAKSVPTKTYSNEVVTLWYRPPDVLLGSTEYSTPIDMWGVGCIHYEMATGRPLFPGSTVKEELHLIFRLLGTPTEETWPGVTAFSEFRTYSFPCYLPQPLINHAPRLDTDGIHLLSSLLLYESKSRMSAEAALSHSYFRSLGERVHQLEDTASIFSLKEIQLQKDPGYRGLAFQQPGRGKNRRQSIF

On to `Cc1sc(C(=O)NC2COC2)cc1-n1cc(NC(=O)Nc2c(F)cccc2Cl)cn1` [Compound 27, 4-(4-(3-(2-chloro-6-fluorophenyl)ureido)-1H-pyrazol-1-yl)-5-methyl-N-(oxetan-3-yl)thiophene-2-carboxamide], for which the remaining activity at 10 µM in [1] (10 uM) was found to be 91.7%; in experiment [2] (10 uM), 91.6%; in experiment [3] (10 uM) it was 104%; in experiment [4] (10 uM) it was 107%; in experiment [5] (10 uM) it was 80.2%; in experiment [6] (10 uM), 104%. The remaining activity at 10 µM amounted to 81.1% in [7] (10 uM); 119% in [8] (10 uM); 72.2% in experiment [9] (10 uM); 91.3% in experiment [10] (10 uM); 96.9% in [11] (10 uM); 97.2% in experiment [12] (10 uM). Further, in [13] (10 uM), the remaining activity at 10 µM is 137%.
For the compound `O=C(Nc1cnn(-c2csc(C(=O)NC3COC3)c2)c1)Nc1c(F)cccc1Cl` [Compound 25, 4-(4-(3-(2-chloro-6-fluorophenyl)ureido)-1H-pyrazol-1-yl)-N-(oxetan-3-yl)thiophene-2-carboxamide], the remaining activity at 5 µM in experiment [1] is 93.8%; in [2], 99%; in experiment [3], 89%; in [4], 84.3%; in [5] it was 95.5%; in [6] it was 90.2%. The remaining activity at 5 µM in experiment [7] was 76.6%; in [8], 91.9%; in [9], 107%; in [10], 92.6%; in [11] it was 95.2%; in [12] it was 88.6%. For the same compound, the remaining activity at 5 µM in experiment [13] came out at 92%.
Consider `O=C(Nc1cnn(-c2csc(C(=O)NC3COC3)c2)c1)Nc1ccccc1Cl` [Compound 17, 4-(4-(3-(2-chlorophenyl)ureido)-1H-pyrazol-1-yl)-N-(oxetan-3-yl)thiophene-2-carboxamide], for which the remaining activity at 5 µM was 103% in experiment [1]; 103% in experiment [2]; 95.7% in experiment [3]; 111% in [4]; 90% in experiment [5]; 98.5% in experiment [6]. In addition, the remaining activity at 5 µM in experiment [7] turned out to be 98.5%; in experiment [8], 101%; in experiment [9], 98.7%; in experiment [10] it was 103%; in [11] it was 97.9%; in [12] it was 101%. The remaining activity at 5 µM in experiment [13] is 97.8%.
